This note sets out measurements from PMC7026418, “The kinase polypharmacology landscape of clinical PARP inhibitors” (Scientific Reports, 2020).

Targets include ACVRL1 (Homo sapiens, UniProt P37023); AKT1 (Homo sapiens, UniProt P31749); CDK7 (Homo sapiens, UniProt P50613); EGFR(L858R,T790M) (Homo sapiens, UniProt P00533, L858R/T790M); EPHA4 (Homo sapiens, UniProt P54764); EPHA7 (Homo sapiens, UniProt Q15375); FLT4 (Homo sapiens, UniProt P35916); MYO3A (Homo sapiens, UniProt Q8NEV4); RET (Homo sapiens, UniProt P07949).
Common to all, as to assay: biochemical
Common to all, as to parameters: DiscoveRx KINOMEscan active site-directed competition binding; percent of control kinase bound to immobilised ligand

Assay [1] deals with T1, ABL1(E255K)-phosphorylated (Homo sapiens, UniProt P00519, E255K).
T1 construct: phosphorylated

Assay [2] has as its target T2, ABL1(F317I)-phosphorylated (Homo sapiens, UniProt P00519, F317I).
T2 construct: phosphorylated

The next assay addresses T3, ADCK3 (Homo sapiens, UniProt Q8NI60).
T3 construct: gene COQ8A

For assay [3], the target named is EGFR(L747-S752del, P753S) (Homo sapiens, UniProt P00533, DEL747-752/P753S).
In another assay the target is T4, MLK3 (Homo sapiens, UniProt Q16584).
T4 construct: gene MAP3K11

The target of a further assay is T5, PRKX (Homo sapiens, UniProt P51817).
T5 sequence (P51817 1-358): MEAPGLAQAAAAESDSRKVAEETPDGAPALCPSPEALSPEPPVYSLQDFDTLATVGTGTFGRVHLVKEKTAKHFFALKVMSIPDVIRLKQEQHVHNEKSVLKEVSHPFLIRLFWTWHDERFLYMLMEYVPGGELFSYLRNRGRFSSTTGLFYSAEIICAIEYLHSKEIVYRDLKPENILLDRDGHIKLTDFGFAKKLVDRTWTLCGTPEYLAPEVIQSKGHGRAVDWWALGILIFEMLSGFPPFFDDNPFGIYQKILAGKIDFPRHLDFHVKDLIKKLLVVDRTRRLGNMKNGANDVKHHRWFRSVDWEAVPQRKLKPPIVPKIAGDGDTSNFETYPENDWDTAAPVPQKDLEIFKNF

Another assay concerns the target T6, TSSK3 (Homo sapiens, UniProt Q96PN8).
T6 sequence (Q96PN8 1-268): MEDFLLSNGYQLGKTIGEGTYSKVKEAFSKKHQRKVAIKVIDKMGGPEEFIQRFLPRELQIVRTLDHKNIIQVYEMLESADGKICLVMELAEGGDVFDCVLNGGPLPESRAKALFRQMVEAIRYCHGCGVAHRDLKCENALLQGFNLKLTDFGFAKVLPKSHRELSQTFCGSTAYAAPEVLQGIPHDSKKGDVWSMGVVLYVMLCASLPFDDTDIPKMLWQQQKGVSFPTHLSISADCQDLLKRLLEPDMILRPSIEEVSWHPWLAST

The next assay has as its target T7, ZAK (Homo sapiens, UniProt Q9NYL2).
T7 construct: gene MAP3K20

Where [4] appears, read: read-out: Niraparib (MK-4827) / %Ctrl @ 10000nM.
Where [5] appears, read: read-out: Talazoparib (BMN 673) / %Ctrl @ 10000nM.
Setting [6] is: read-out: Rucaparib / %Ctrl @ 10000nM, binding competition, % of control.
The mark [7] stands for this setting: read-out: Olaparib / %Ctrl @ 10000nM.

Like-named read-outs stand apart in the source and are kept apart here.

T3 sequence (Q8NI60 whole entry): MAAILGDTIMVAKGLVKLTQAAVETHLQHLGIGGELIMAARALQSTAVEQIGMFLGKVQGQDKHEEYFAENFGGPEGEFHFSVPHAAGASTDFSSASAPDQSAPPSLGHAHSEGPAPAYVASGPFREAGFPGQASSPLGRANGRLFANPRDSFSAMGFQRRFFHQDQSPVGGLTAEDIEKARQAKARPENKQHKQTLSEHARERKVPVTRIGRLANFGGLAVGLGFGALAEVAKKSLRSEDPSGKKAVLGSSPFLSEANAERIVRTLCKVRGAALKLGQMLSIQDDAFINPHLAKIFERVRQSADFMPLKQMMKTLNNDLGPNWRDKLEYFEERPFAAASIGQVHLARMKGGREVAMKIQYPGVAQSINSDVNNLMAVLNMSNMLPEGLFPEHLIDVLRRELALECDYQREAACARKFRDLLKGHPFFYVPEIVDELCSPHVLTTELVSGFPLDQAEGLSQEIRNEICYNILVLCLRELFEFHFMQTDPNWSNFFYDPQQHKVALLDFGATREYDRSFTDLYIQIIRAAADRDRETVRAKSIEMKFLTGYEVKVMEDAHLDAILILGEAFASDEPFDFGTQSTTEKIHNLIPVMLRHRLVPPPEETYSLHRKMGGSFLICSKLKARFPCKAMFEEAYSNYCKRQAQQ
EGFR(L858R,T790M), sequence (P00533 whole entry T790M/L858R): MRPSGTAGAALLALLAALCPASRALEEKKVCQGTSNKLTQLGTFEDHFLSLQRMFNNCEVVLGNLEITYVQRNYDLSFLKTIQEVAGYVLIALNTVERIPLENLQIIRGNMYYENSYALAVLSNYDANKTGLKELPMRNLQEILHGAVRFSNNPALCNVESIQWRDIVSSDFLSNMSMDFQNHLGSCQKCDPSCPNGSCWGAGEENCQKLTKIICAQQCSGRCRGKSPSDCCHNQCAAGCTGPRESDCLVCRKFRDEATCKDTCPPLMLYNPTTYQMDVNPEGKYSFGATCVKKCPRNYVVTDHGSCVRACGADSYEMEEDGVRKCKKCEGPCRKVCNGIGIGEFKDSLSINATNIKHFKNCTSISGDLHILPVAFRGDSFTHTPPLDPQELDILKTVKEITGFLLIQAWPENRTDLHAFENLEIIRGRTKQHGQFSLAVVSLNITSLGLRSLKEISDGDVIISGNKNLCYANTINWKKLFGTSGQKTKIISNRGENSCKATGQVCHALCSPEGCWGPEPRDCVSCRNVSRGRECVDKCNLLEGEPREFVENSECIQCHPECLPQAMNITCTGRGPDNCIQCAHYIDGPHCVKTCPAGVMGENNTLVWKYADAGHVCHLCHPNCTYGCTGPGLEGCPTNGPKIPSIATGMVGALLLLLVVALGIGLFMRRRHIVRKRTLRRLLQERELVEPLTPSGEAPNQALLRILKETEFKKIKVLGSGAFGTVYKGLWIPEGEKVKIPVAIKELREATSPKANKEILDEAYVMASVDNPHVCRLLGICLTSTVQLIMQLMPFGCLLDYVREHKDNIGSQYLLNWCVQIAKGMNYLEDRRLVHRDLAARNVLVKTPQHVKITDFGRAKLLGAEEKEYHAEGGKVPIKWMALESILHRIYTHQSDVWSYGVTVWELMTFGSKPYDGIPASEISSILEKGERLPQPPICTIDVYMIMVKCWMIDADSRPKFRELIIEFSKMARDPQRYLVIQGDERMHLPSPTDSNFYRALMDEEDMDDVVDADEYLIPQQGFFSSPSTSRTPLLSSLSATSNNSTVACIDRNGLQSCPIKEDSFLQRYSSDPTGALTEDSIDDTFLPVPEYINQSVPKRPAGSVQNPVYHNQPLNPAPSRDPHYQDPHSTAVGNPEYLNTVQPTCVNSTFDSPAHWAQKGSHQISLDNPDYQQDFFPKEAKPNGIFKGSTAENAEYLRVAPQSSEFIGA
T7 sequence (Q9NYL2 whole entry): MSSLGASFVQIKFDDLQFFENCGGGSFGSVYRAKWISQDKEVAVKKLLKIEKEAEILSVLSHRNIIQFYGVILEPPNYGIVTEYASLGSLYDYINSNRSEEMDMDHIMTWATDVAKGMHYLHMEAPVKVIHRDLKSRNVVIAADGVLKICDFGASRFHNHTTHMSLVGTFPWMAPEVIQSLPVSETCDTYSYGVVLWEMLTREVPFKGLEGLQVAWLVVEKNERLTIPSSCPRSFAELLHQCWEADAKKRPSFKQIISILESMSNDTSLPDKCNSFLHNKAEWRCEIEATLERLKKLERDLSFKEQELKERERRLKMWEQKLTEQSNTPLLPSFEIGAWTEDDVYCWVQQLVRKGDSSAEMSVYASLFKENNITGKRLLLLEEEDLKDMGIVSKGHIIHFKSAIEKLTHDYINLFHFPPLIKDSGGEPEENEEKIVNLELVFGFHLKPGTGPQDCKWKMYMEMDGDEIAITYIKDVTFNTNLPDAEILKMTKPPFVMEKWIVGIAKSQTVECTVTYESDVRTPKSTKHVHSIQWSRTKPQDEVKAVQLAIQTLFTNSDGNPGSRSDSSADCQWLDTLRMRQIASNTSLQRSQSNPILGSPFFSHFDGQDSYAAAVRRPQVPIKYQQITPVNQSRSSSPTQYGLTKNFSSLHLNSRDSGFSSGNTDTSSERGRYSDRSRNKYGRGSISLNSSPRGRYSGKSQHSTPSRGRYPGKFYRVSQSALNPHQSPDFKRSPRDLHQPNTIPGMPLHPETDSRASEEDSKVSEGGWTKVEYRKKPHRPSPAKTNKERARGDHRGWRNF
T2 sequence (P00519 whole entry F317I): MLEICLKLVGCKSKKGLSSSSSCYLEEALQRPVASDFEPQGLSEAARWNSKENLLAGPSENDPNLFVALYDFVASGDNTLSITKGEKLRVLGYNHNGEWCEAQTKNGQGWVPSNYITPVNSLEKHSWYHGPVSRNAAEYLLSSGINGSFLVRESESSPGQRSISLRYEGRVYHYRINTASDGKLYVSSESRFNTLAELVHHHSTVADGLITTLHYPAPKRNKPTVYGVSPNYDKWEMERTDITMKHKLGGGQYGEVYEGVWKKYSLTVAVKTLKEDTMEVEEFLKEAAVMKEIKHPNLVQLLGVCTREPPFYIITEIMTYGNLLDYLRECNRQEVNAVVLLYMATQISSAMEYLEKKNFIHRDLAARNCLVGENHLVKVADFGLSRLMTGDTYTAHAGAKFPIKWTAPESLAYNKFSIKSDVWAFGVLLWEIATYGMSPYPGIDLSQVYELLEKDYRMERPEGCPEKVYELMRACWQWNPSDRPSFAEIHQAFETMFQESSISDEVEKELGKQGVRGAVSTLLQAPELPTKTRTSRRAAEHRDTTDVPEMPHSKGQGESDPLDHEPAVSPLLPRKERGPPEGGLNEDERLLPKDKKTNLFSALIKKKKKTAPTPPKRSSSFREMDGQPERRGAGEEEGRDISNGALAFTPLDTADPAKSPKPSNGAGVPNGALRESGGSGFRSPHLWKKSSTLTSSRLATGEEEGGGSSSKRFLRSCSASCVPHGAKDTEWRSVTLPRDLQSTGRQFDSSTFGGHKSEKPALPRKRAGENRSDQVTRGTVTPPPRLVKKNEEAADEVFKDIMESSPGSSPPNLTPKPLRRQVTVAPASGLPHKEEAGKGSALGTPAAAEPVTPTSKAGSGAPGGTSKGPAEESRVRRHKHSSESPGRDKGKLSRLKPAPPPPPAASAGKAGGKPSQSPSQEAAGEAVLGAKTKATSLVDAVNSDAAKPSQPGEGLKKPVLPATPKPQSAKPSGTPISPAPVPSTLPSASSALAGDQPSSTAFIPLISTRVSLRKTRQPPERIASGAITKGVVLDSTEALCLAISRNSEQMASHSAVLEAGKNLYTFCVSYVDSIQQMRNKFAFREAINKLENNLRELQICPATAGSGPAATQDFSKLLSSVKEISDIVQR
EGFR(L747-S752del, P753S), sequence (P00533 with tags, fused parts or gaps DEL747-752/P753S): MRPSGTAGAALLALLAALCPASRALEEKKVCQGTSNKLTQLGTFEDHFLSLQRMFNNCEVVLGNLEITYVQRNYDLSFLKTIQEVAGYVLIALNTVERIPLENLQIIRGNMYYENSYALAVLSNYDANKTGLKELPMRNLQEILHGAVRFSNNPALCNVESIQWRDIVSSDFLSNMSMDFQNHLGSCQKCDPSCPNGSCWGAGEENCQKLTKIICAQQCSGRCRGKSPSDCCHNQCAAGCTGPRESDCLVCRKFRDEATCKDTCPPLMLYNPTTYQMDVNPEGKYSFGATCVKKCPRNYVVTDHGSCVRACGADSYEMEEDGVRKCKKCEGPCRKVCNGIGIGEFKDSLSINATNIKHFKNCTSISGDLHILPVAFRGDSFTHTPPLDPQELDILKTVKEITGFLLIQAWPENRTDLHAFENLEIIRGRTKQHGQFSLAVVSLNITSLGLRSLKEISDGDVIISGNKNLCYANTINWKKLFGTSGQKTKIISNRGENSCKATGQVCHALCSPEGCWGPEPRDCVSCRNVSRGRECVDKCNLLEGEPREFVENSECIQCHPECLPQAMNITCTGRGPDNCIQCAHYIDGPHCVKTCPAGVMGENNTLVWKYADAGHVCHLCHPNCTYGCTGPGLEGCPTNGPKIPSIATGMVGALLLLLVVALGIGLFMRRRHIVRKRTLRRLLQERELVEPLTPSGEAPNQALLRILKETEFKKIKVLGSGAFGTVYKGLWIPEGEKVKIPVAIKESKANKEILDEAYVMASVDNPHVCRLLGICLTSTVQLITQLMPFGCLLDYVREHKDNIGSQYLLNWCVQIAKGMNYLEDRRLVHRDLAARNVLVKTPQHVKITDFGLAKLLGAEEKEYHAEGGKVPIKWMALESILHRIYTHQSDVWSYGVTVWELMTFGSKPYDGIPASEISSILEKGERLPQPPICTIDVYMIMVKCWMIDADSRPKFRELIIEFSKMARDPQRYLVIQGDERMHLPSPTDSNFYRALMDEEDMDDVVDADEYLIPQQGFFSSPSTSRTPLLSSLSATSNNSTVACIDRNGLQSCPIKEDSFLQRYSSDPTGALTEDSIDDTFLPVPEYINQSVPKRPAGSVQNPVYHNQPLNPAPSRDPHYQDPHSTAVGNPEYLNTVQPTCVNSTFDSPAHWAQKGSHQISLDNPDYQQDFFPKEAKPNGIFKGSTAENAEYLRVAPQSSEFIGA
T1 sequence (P00519 whole entry E255K): as the sequence (P00519 whole entry F317I) above, with E255K, I317F counted along it

Consider `NC(=O)c1cccc2cn(-c3ccc([C@@H]4CCCNC4)cc3)nc12` [Niraparib], for which the percent of control binding at 10 µM in assay [1] (setting [4]) came out at 64%; in assay [2] (setting [4]) it was 89%; on ACVRL1 (setting [4]), 98%; on ADCK3 (setting [4]), 57%; at AKT1 (setting [4]), 99%; at CDK7 (setting [4]), 73%. Also, the percent of control binding at 10 µM in [3] (setting [4]) was determined as 93%; on EGFR(L858R,T790M) (setting [4]) it was 100%; on EPHA4 (setting [4]), 83%; on EPHA7 (setting [4]), 89%; on FLT4 (setting [4]), 99%; on MLK3 (setting [4]), 84%. The percent of control binding at 10 µM on MYO3A (setting [4]) came out at 72%; at PRKX (setting [4]) it was 96%; on RET (setting [4]) it was 83%; on TSSK3 (setting [4]) it was 91%; on ZAK (setting [4]), 88%.

Regarding `Cn1ncnc1[C@H]1c2n[nH]c(=O)c3cc(F)cc(c23)N[C@@H]1c1ccc(F)cc1` [Talazoparib], the percent of control binding at 10 µM in assay [1] (setting [5]) turned out to be 100%; in [2] (setting [5]), 99%; on ACVRL1 (setting [5]), 84%; on ADCK3 (setting [5]) it was 100%; on AKT1 (setting [5]), 92%; on CDK7 (setting [5]), 100%. Also, the percent of control binding at 10 µM is 98% in [3] (setting [5]); 100% at EGFR(L858R,T790M) (setting [5]); 100% at EPHA4 (setting [5]); 96% on EPHA7 (setting [5]); 93% on FLT4 (setting [5]); 70% on MLK3 (setting [5]). Moreover, the percent of control binding at 10 µM at MYO3A (setting [5]) was 83%; at PRKX (setting [5]) it was 94%; at RET (setting [5]) it was 100%; on TSSK3 (setting [5]), 84%; at ZAK (setting [5]) it was 97%.

On to `CNCc1ccc(-c2[nH]c3cc(F)cc4c3c2CCNC4=O)cc1` [Rucaparib], for which the percent of control binding at 10 µM in assay [1] (setting [6]) amounted to 91%; in assay [2] (setting [6]) it was 92%; on ACVRL1 (setting [6]), 100%; at ADCK3 (setting [6]), 69%; at AKT1 (setting [6]), 91%; at CDK7 (setting [6]), 71%. The percent of control binding at 10 µM in [3] (setting [6]) is 100%; on EGFR(L858R,T790M) (setting [6]), 70%; at EPHA4 (setting [6]), 97%; on EPHA7 (setting [6]), 100%; at FLT4 (setting [6]), 95%; on MLK3 (setting [6]), 92%. In addition, the percent of control binding at 10 µM on MYO3A (setting [6]) was determined as 42%; on PRKX (setting [6]), 92%; on RET (setting [6]), 98%; on TSSK3 (setting [6]), 0%; at ZAK (setting [6]) it was 93%.

For the compound `O=C(c1cc(Cc2n[nH]c(=O)c3ccccc23)ccc1F)N1CCN(C(=O)C2CC2)CC1` [Olaparib], the percent of control binding at 10 µM in assay [1] (setting [7]) amounted to 89%; in [2] (setting [7]), 86%; at ACVRL1 (setting [7]) it was 97%; at ADCK3 (setting [7]) it was 99%; on AKT1 (setting [7]), 100%; on CDK7 (setting [7]) it was 89%. For the same compound, the percent of control binding at 10 µM in [3] (setting [7]) turned out to be 100%; on EGFR(L858R,T790M) (setting [7]), 93%; at EPHA4 (setting [7]), 92%; on EPHA7 (setting [7]), 100%; at FLT4 (setting [7]), 97%; at MLK3 (setting [7]), 100%. Also, the percent of control binding at 10 µM came to 100% on MYO3A (setting [7]); 88% on PRKX (setting [7]); 100% at RET (setting [7]); 89% at TSSK3 (setting [7]); 94% at ZAK (setting [7]).
